In patent US11608330B2, “Methylamine derivatives as lysysl oxidase inhibitors for the treatment of cancer” (The Institute of Cancer Research: Royal Cancer Hospital, priority 2016, dated 2023):

How the values were obtained:
[1] = tested on: TGF beta signalling (pSMAD2); type: cell-based
[2] = tested on: MATN2 in MDA-MB-231 cells; assay: MATN2 level in MDA-MB-231 cells; type: cell-based, human; conditions: at a much higher concentration
Protocol: Proteins were extracted from cultured cells using cell lysis buffer (Cell Signalling Technology) with the addition of protease and phosphatase inhibitor cocktails (Pierce). Protein concentrations were measured using Pierce 660 nm protein assay reagent and SpectaMax M5 plate reader. […] Separated proteins were transferred to nitrocellulose membranes using a Trans-Blot turbo transfer system (Bio-Rad). Following blocking with Odyssey blocking buffer (Li—COR), membranes were incubated with two primary antibodies of different species at 4° C. over night. Corresponding fluorescence secondary antibodies (Li—COR) of different excitation and emission wavelengths were used to visualize the protein of interest on an Odyssey CLx infrared imaging system (Li—COR). Quantification of band fluorescent intensity was achieved using Li-COR ImageStudio. The following primary antibodies were used, anti-LOX (Sigma), anti-human MATN2 (R&D), anti-EGFR and anti-pY1068EGFR (Cell Signalling Technology), and anti-GAPDH (Millipore).

In the case of `N#CCCN` [BAPN, beta-aminopropionitrile], the “TGF beta signalling as indicated by pSMAD2” value [1] is reported as “increased TGF beta signalling” and the “reduction of MATN2” value [2] is reported as “same effect”.
